Laboratory results: ChEMBL document CHEMBL1201862, “PubChem BioAssay data set” (2004)
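How tested: cells in 96-well plates exposed to compound for 48 hours at five concentrations. The concentration for 50% growth inhibition is given as GI50.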 Activity calls are given as the source filed them. Rule as the data show it: active = GI50 up to about 1.1 µM and inactive = higher.

What was measured:
Assay in all cases: NCI anticancer screen, dose series, 48 h
K562 = test system: K562
DU-145 = test system: DU-145
A549 = test system: A549
SK-MEL-2 = test system: SK-MEL-2
NCI-H522 = test system: NCI-H522
OVCAR-3 = test system: OVCAR-3
M14 = test system: M14
UO-31 = test system: UO-31
PC-3 = test system: PC-3
ACHN = test system: ACHN
OVCAR-4 = test system: OVCAR-4
Hs-578T = test system: Hs-578T
SR = test system: SR
SW-620 = test system: SW-620
MDA-MB-231 = test system: MDA-MB-231
MDA-MB-435 = test system: MDA-MB-435
KM12 = test system: KM12
RXF 393 = test system: RXF 393
OVCAR-8 = test system: OVCAR-8
A498 = test system: A498

Row | SMILES | GI50 (K562) | GI50 (DU-145) | GI50 (A549) | GI50 (SK-MEL-2) | GI50 (NCI-H522) | GI50 (OVCAR-3) | GI50 (M14) | GI50 (UO-31) | GI50 (PC-3) | GI50 (ACHN) | GI50 (OVCAR-4) | GI50 (Hs-578T) | GI50 (SR) | GI50 (SW-620) | GI50 (MDA-MB-231) | GI50 (MDA-MB-435) | GI50 (KM12) | GI50 (RXF 393) | GI50 (OVCAR-8) | GI50 (A498)
1 | CCC1c2[nH]c3ccccc3c2C[C@H]2C(=O)NC(C)C(=O)N12 (stereo partly specified) | > 100 µM (inactive) | > 100 µM (inactive) | > 100 µM (inactive) | > 100 µM (inactive) | > 100 µM (inactive) | > 100 µM (inactive) | > 100 µM (inactive) | > 100 µM (inactive) | > 100 µM (inactive) | > 100 µM (inactive) | > 100 µM (inactive) | > 100 µM (inactive) | > 100 µM (inactive) | > 100 µM (inactive) | > 100 µM (inactive) | > 100 µM (inactive) | > 100 µM (inactive) | > 100 µM (inactive) | > 100 µM (inactive) | > 100 µM (inactive)
2 | N#Cc1c(N)c2c(c(-c3ccccc3)c1-c1ccccc1)C(=O)N(O)C2=O | 91.8 µM (inactive) | 39.4 µM (inactive) | 31 µM (inactive) | 41 µM (inactive) | 56.2 µM (inactive) | 26.9 µM (inactive) | > 100 µM (inactive) | 37 µM (inactive) | 14.1 µM (inactive) | > 100 µM (inactive) | 66.8 µM (inactive) | 18.9 µM (inactive) | 62.7 µM (inactive) | 96.8 µM (inactive) | > 100 µM (inactive) | 79.4 µM (inactive) | 29.6 µM (inactive) | 10.5 µM (inactive) | > 100 µM (inactive) | 37.8 µM (inactive)
3 | COc1ccc(/C=N/NC(=O)O)cc1 | > 100 µM (inactive) | > 100 µM (inactive) | > 100 µM (inactive) | > 100 µM (inactive) | > 100 µM (inactive) | > 100 µM (inactive) | > 100 µM (inactive) | > 100 µM (inactive) | > 100 µM (inactive) | > 100 µM (inactive) | > 100 µM (inactive) | > 100 µM (inactive) | > 100 µM (inactive) | > 100 µM (inactive) | > 100 µM (inactive) | > 100 µM (inactive) | > 100 µM (inactive) | > 100 µM (inactive) | – | > 100 µM (inactive)
4 | CCOC(=O)C1(Cc2c[nH]c3ccccc23)C(O)CCCN1C(C)=O (stereo unspecified) | > 100 µM (inactive) | > 100 µM (inactive) | > 100 µM (inactive) | > 100 µM (inactive) | – | > 100 µM (inactive) | > 100 µM (inactive) | > 100 µM (inactive) | > 100 µM (inactive) | > 100 µM (inactive) | > 100 µM (inactive) | > 100 µM (inactive) | 81.5 µM (inactive) | > 100 µM (inactive) | > 100 µM (inactive) | > 100 µM (inactive) | > 100 µM (inactive) | > 100 µM (inactive) | > 100 µM (inactive) | > 100 µM (inactive)
5 | Fc1ccc(Oc2nc3ccccc3nc2-c2ccccc2)cc1 | > 100 µM (inactive) | > 100 µM (inactive) | – | > 100 µM (inactive) | 71.8 µM (inactive) | > 100 µM (inactive) | – | > 100 µM (inactive) | > 100 µM (inactive) | > 100 µM (inactive) | 36.5 µM (inactive) | 94.4 µM (inactive) | 44.6 µM (inactive) | > 100 µM (inactive) | > 100 µM (inactive) | > 100 µM (inactive) | > 100 µM (inactive) | 37.2 µM (inactive) | – | > 100 µM (inactive)
6 | CC(=O)OCC1OC(n2c3c(cc(C#N)c2=S)CCCCC3)C(OC(C)=O)C(OC(C)=O)C1OC(C)=O (stereo unspecified) | > 100 µM (inactive) | > 100 µM (inactive) | > 100 µM (inactive) | > 100 µM (inactive) | > 100 µM (inactive) | > 100 µM (inactive) | > 100 µM (inactive) | > 100 µM (inactive) | > 100 µM (inactive) | > 100 µM (inactive) | > 100 µM (inactive) | > 100 µM (inactive) | > 100 µM (inactive) | – | > 100 µM (inactive) | > 100 µM (inactive) | > 100 µM (inactive) | > 100 µM (inactive) | > 100 µM (inactive) | > 100 µM (inactive)
7 | C[C@H]1CC[C@@H]2[C@@H](C)[C@H]3[C@H](C[C@H]4[C@@H]5CC=C6C[C@@H](O)CC[C@]6(C)[C@H]5CC[C@]34C)N2C1 | – | > 100 µM (inactive) | > 100 µM (inactive) | > 100 µM (inactive) | 42.6 µM (inactive) | > 100 µM (inactive) | 74 µM (inactive) | 60.5 µM (inactive) | 50.9 µM (inactive) | 59.8 µM (inactive) | 32.4 µM (inactive) | 33.3 µM (inactive) | 22.6 µM (inactive) | 75.2 µM (inactive) | 39.4 µM (inactive) | 89.7 µM (inactive) | 30.3 µM (inactive) | 19.4 µM (inactive) | 32.5 µM (inactive) | 13.6 µM (inactive)
8 | COc1cc(Oc2nc3ccc(C(F)(F)F)cc3nc2-c2ccccc2)cc(OC)c1OC | 40.5 µM (inactive) | > 100 µM (inactive) | 17.1 µM (inactive) | – | 25.1 µM (inactive) | 27.5 µM (inactive) | – | > 100 µM (inactive) | 22.6 µM (inactive) | 11.6 µM (inactive) | 6.58 µM (inactive) | 21.9 µM (inactive) | 34 µM (inactive) | > 10 µM (inactive) | 23 µM (inactive) | 30.4 µM (inactive) | 66.2 µM (inactive) | 11 µM (inactive) | 45.8 µM (inactive) | 32.9 µM (inactive)
9 | CS(=O)(=O)OCC1CCCCCCCCCCC12SCCCS2 (stereo unspecified) | > 100 µM (inactive) | > 100 µM (inactive) | > 100 µM (inactive) | > 100 µM (inactive) | > 100 µM (inactive) | > 100 µM (inactive) | > 100 µM (inactive) | > 100 µM (inactive) | > 100 µM (inactive) | > 100 µM (inactive) | > 100 µM (inactive) | > 100 µM (inactive) | > 100 µM (inactive) | > 100 µM (inactive) | > 100 µM (inactive) | > 100 µM (inactive) | > 100 µM (inactive) | > 100 µM (inactive) | > 100 µM (inactive) | > 100 µM (inactive)
10 | Cc1c(-c2ccccc2)c(C#N)c2nnn(-c3cccc(Cl)c3)c(=O)n12 | 50.5 µM (inactive) | 68.9 µM (inactive) | – | 27.7 µM (inactive) | 47.8 µM (inactive) | 43 µM (inactive) | – | – | 26.5 µM (inactive) | 53.2 µM (inactive) | 76.2 µM (inactive) | > 100 µM (inactive) | 12.6 µM (inactive) | 46.8 µM (inactive) | 25.1 µM (inactive) | > 100 µM (inactive) | 55.8 µM (inactive) | 31.2 µM (inactive) | 53.5 µM (inactive) | 26.2 µM (inactive)
11 | Cc1ccc(OCC2=NN3C(=O)/C(=C\c4ccc([N+](=O)[O-])o4)SC3N2)cc1 (stereo unspecified) | 0.711 µM (active) | 5.68 µM (inactive) | 19 µM (inactive) | 15.7 µM (inactive) | 1.82 µM (inactive) | 1.95 µM (inactive) | 8.47 µM (inactive) | 15.4 µM (inactive) | 5.5 µM (inactive) | 1.71 µM (inactive) | 2.99 µM (inactive) | 21.7 µM (inactive) | 2.94 µM (inactive) | 2.93 µM (inactive) | 12.4 µM (inactive) | 5.47 µM (inactive) | 15.8 µM (inactive) | 14.9 µM (inactive) | 3.66 µM (inactive) | 17.4 µM (inactive)
12 | Nn1c(S)nnc1C12CC3CC(CC(C3)C1)C2 | > 100 µM (inactive) | > 100 µM (inactive) | > 100 µM (inactive) | > 100 µM (inactive) | > 100 µM (inactive) | > 100 µM (inactive) | > 100 µM (inactive) | > 100 µM (inactive) | > 100 µM (inactive) | > 100 µM (inactive) | > 100 µM (inactive) | > 100 µM (inactive) | > 100 µM (inactive) | > 100 µM (inactive) | > 100 µM (inactive) | > 100 µM (inactive) | > 100 µM (inactive) | > 100 µM (inactive) | – | > 100 µM (inactive)
13 | C/C1=C/C2OC(=O)C3(C)C2C(CC2(C)OC1=CC2=O)OC3(O)C(C)C (stereo unspecified) | 32.7 µM (inactive) | 59.8 µM (inactive) | > 56 µM (inactive) | 29.4 µM (inactive) | 14.8 µM (inactive) | 31.2 µM (inactive) | 37 µM (inactive) | 84.1 µM (inactive) | 40.8 µM (inactive) | 33.9 µM (inactive) | 25.1 µM (inactive) | 59 µM (inactive) | 22.6 µM (inactive) | 23.7 µM (inactive) | > 100 µM (inactive) | 38.3 µM (inactive) | 27 µM (inactive) | > 37.4 µM (inactive) | 29 µM (inactive) | 73.8 µM (inactive)
14 | C/C1=C\[C@@H](O)C(=O)/C=C/C=C\c2csc(n2)[C@@H](C)NC(=O)C[C@@]2(CC1)[S+]([O-])SC(=O)[C@]2(C)O (stereo partly specified) [LEINAMYCIN] | 0.00456 µM (active) | 0.00679 µM (active) | 0.12 µM (active) | 0.00601 µM (active) | 0.00188 µM (active) | 0.0112 µM (active) | 0.00692 µM (active) | 0.0308 µM (active) | 0.0128 µM (active) | – | 0.0217 µM (active) | 0.0337 µM (active) | 0.00327 µM (active) | 0.00204 µM (active) | 0.0321 µM (active) | 0.0187 µM (active) | 0.0813 µM (active) | 0.0127 µM (active) | 0.0174 µM (active) | 0.01 µM (active)
